Assay results reported in patent publication US9221756B2, “Pyrrole derivatives” (priority 2011, dated 2015).

Legend:
Suilysin (SLY) = Suilysin (SLY) (Streptococcus suis, UniProt Q55996); assay: Inhibition of the haemolytic activity of Suilysin; assay type: cell-based; conditions: toxin SLY; haemolysis assay protocol of Section A
[1] = molecular target: T1, S. pneumoniae cell lysate containing native pneumolysin (Streptococcus pneumoniae serotype 2, UniProt Q04IN8); assay: Ex vivo meningitis assay: effect of bacterial lysate on ciliary function of cultured ependymal cells; assay type: cell-based; conditions: rat ependymal cells; lysate from penicillin-lysed S. pneumoniae; FIG. 2.B
T1 construct: S. pneumoniae cell lysate containing native pneumolysin; endogenous in cells
From the text: (§1) The ependymal ciliated cells line the cerebral ventricles of the brain and the central canal of the spinal cord and are covered with cilia responsible for the circulation of the cerebrospinal fluid (CSF) around the central nervous system. This layer acts as a selective brain barrier to and from the cerebrospinal fluid and plays a role in controlling the CSF volume. […] This model is based on culturing and differentiating ciliated ependymal cells from neonate rat brains, which recreate the in vivo situation, where cells lining the brain ventricles, are exposed to S. pneumoniae and its toxic products.
(§2) Ependymal cell cultures were prepared by the method previously described [Microb. Pathog. (1999) 27 303-309]. Tissue culture trays were coated with bovine fibronectin and incubated at 37° C. in 5% (v/v) CO2 for 2 h before use. […]
(§3) After approximately two weeks, the cells were fully ciliated and ready for experiments. […] Beating cilia were recorded before and after exposure over 30 min, with a digital high-speed video camera at a rate of 500 frames/s. The recorded video sequences were played back at reduced frame rates and the ciliary beat frequency (CBF) was determined by the following equation: […]

pneumolysin [2] = molecular target: T2, pneumolysin (Streptococcus pneumoniae serotype 2, UniProt Q04IN8); assay: Inhibition of the haemolytic activity of pneumolysin (sheep erythrocytes); assay type: cell-based; conditions: IC50, inhibition of pneumolysin-induced haemolysis of sheep erythrocytes
Streptolysin O (SLO) = molecular target: T3, Streptolysin O (SLO) (Streptococcus pyogenes serotype M3, UniProt P0DF97); assay: Inhibition of the haemolytic activity of Streptolysin O; assay type: cell-based, Group A Streptococci; conditions: toxin SLO; haemolysis assay protocol of Section A
T3 sequence (P0DF97 34-571): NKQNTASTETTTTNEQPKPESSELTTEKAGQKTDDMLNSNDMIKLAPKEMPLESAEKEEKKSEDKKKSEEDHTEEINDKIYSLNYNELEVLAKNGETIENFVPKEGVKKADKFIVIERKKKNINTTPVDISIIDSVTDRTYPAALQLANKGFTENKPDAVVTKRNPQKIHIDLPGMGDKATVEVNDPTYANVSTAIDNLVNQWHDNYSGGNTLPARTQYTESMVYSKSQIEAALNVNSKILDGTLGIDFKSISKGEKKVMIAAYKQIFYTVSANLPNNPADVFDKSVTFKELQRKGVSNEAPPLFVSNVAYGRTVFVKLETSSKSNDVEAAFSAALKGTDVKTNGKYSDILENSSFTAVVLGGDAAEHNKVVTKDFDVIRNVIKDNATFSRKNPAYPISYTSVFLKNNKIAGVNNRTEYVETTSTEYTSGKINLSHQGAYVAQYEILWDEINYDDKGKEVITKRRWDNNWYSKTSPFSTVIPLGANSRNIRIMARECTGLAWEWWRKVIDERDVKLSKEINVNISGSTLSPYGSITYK

[3] = system: Streptococcus pneumoniae strain D39; assay: In vivo efficacy assay using a mouse pneumonia model; conditions: MF1 mice
pneumolysin [4] = molecular target: T2, pneumolysin; assay: Ex vivo meningitis assay: effect of pneumolysin on ciliary function of cultured ependymal cells; assay type: cell-based; conditions: rat ependymal cells; UL1-012 1.56 μM-25 μM; FIG. 2.A
From the text: as §1, §2, §3

Anthrolysin O (ALO) = Anthrolysin O (ALO) (Bacillus anthracis, UniProt A0A6L7HHW7); assay: cell-based
Perfringolysin O (PFO) = Perfringolysin O (PFO) (Clostridium perfringens, UniProt P0C2E9); assay: cell-based
Listeriolysin O (LLO) = Listeriolysin O (LLO) (Listeria monocytogenes serovar 1/2a, UniProt P13128); assay: Inhibition of the haemolytic activity of Listeriolysin O; assay type: cell-based; conditions: toxin LLO; haemolysis assay protocol of Section A
[5] = system: Human lung epithelial cells (A549); conditions: concentrations tested, up to approximately 150 times the therapeutic IC50 value
pneumolysin [6] = molecular target: T2, pneumolysin; assay: Inhibition of pneumolysin-induced lactate dehydrogenase release from A549 cells; assay type: cell-based
[7] = mice receiving the compound alone; highest concentration of UL1-012 (16 mg/kg i.v. every 6 h)

T2 sequence (Q04IN8 whole entry): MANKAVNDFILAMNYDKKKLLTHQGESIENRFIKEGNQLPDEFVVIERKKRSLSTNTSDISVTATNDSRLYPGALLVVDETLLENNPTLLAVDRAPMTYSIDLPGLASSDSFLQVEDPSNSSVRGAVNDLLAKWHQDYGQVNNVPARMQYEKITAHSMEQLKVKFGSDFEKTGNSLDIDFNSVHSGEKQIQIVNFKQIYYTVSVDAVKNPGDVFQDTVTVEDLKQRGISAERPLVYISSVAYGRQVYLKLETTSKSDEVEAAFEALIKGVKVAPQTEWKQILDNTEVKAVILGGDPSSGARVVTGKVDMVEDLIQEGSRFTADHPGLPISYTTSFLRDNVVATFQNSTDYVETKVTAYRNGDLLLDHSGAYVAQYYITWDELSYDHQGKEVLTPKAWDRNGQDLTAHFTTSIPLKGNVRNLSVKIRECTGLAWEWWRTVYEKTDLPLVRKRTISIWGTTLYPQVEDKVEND
Suilysin (SLY), sequence (Q55996 28-497 limits assumed): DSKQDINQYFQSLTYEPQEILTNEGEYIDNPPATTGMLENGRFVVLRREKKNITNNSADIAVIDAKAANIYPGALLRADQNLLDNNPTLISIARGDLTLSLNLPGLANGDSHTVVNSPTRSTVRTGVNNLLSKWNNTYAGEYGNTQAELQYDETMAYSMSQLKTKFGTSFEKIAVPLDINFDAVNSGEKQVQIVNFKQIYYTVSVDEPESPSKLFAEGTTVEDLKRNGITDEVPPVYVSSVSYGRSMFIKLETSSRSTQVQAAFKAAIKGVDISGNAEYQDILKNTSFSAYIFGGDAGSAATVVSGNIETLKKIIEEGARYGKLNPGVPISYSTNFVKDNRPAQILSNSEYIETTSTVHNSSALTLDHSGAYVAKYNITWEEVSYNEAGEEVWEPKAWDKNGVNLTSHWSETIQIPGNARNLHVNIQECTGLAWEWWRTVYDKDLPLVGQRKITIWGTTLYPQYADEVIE
T1 sequence (Q04IN8 whole entry): as the sequence (Q04IN8 whole entry) above
Listeriolysin O (LLO), sequence (P13128 25-529): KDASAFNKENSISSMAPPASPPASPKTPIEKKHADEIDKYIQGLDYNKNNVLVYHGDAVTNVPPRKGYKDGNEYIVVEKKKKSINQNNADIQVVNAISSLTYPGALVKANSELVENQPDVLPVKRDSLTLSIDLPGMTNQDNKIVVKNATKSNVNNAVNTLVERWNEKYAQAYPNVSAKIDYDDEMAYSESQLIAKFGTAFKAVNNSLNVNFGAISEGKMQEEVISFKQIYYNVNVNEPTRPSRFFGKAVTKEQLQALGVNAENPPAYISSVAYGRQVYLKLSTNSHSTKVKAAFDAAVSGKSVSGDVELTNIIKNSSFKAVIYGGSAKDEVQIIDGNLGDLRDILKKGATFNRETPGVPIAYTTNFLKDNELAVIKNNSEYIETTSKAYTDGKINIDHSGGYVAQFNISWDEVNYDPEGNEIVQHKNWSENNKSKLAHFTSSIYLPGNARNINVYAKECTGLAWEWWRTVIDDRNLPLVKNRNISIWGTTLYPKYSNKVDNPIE
Anthrolysin O (ALO), sequence (A0A6L7HHW7 35-512 limits assumed): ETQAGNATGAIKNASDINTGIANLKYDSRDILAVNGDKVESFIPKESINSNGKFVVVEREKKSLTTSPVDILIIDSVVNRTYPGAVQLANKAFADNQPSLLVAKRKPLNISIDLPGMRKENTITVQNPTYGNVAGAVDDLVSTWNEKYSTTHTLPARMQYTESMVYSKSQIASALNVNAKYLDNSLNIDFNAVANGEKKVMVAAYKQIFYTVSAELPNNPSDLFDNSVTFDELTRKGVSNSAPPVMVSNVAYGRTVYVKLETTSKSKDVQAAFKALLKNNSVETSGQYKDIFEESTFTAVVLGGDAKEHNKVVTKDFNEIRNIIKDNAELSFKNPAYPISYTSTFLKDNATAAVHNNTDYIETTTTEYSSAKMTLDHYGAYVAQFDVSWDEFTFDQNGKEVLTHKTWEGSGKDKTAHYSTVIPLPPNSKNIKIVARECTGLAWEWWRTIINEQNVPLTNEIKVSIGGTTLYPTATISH
Perfringolysin O (PFO), sequence (P0C2E9 29-500 limits assumed): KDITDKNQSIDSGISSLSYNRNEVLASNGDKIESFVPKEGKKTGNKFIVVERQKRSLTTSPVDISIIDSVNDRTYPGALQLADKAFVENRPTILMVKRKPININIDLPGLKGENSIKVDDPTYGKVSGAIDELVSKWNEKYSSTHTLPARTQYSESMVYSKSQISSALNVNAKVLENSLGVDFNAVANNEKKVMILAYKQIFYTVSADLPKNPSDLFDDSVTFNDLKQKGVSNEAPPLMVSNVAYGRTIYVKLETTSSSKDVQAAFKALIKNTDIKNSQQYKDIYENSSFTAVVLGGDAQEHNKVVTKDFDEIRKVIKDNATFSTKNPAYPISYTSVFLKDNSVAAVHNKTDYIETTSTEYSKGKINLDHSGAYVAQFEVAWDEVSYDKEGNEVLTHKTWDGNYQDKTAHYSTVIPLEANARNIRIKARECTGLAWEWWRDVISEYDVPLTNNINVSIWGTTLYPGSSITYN

With `CCOC(=O)c1c(O)c(O)c(C(=O)N(C)C)n1-c1ccc(OC)cc1` [UL1-012, ethyl 5-(dimethylcarbamoyl)-3,4-dihydroxy-1-(4-methoxyphenyl)-1H-pyrrole-2-carboxylate] the IC50 (Suilysin (SLY)) was less than 10 µM, the “ciliary beating frequency (CBF) in the presence of bacterial lysate” value [1] was “significantly prevented the drop of the CBF” and the IC50 (pneumolysin [2]; class symbols of Table 1) was less than 10 µM. The IC50 (pneumolysin [2]; specific values) was 0.15 µM, the IC50 (Streptolysin O (SLO)) was less than 10 µM and the survival ([3]; 4 mg/kg intravenously every 6 h, up to approximately 40 h after infection, p<0.05, FIG. 5) was “significant improvement in the survival”. The “survival, mice surviving at endpoint” value ([3]; 16 mg/kg intravenously every 6 h, 72 h post infection, p<0.05, FIG. 6) was 50%, the “disease score (signs of disease)” value ([3]; 16 mg/kg intravenously every 6 h, p<0.05 at 30 h, 36 h, 60 h and 66 h post-infection, FIG. 7) was “significant attenuation of the signs of the disease” and the “ciliary beating frequency (CBF) in the presence of pneumolysin” value (pneumolysin [4]) was “No significant loss of the CBF”. The IC50 (Anthrolysin O (ALO)) was less than 10 µM, the IC50 (Perfringolysin O (PFO)) was less than 10 µM and the IC50 (Listeriolysin O (LLO)) was less than 10 µM. The “cytotoxicity (LDH release, compound alone)” value [5] was “does not exhibit cytotoxicity”, the IC50 (pneumolysin [6]) was less than 0.4 µM and the visible adverse effects [7] was “no visible adverse effects”.
